Assay [1] can be described thus: Body weight gain in C57BU6 mice shifted to a high fat diet, analogs and isomers, 3 days (Example 9). It counts as in vivo. The note with it: 100 mg/kg twice daily oral gavage; for body weight gain induced by the high fat diet: C57BU6 mice on high fat diet. As to the method: C57BU6 mice were received at 6-7 weeks of age and fed a standard commercial chow for 1 week (acclimation period). The animals were randomized based on their body weight values, into control and treatment groups (n=6). Then, animals were shifted to a high fat diet (60% of calories from fat) and treated twice daily by oral gavage with 4-hydroxyisoleucine (4-OH, compound 14a) or different analogs and isomers of 4-OH at the dose of 100 mg per kg of body weight for 3 days. The control group (Control HFD) received vehicle (water) alone and a group was kept under standard chow (Control Lean). Body weight of the mice was recorded daily. Two different experiments were run and the effect on body weight gain of selected analogs and isomers according to the invention is presented in FIG. 22A (Experiment 1) and FIG. 22B (Experiment 2).

Assay [2] is described as follows: Body weight gain and epididymal fat pad in the DIO mouse model, Compound 13e (Example 8). The conditions noted are these: 25 or 50 mg/kg twice daily oral gavage, 21 days. Type of assay: in vivo, C57BU6 mice. As to the method:
The objective of this study was to determine the effect of one analog according to the invention, namely Compound 13e, on body weight gain in the Diet-Induced Obesity (DIO) mouse model.
C57BU6 mice were received at 7-8 weeks of age and fed a high fat diet (60% of calories from fat) for 8 weeks. Fasted glycemia and body weight values were used to randomize the mice into control and treatment groups (n=8). The average basal glycemia was between 213 and 215 mg/dL for all groups. The animals were treated twice daily by oral gavage with Compound 13e (25 or 50 mg per kg of body weight), and the control group received vehicle (200 mM bicarbonate buffer/0.1% Tween-20™, pH =9) alone. The animals were treated for 21 days. Body weight of the mice was measured on a frequent basis during the treatment. At the end of the study, the epididymal fat pads were isolated and weighed. Data are expressed as mean±SEM of body weight and mean±SEM of fat pad weight.

The nature of assay [3]: Body weight of DIO mice, 4-hydroxyisoleucine and Rimonabant alone and in combination (Example 7). It counts as in vivo, C57BU6 mice. The note with it: oral. How it is done: C57BU6 mice were received at 7-8 weeks of age and fed a high fat diet (60% of calories from fat) for 8 weeks. Seven days prior to treatment, animals were randomized based on their body weight and fasted glycemia values into control and treated groups (n=8). The animals were treated by oral gavage twice daily with 4-OH (50 mg/kg of body weight; group 2), once daily in the afternoon with Rimonabant (0.1 mg/kg; group 3), and a combination of the two treatments (4-OH 50 mg/kg twice daily +Rimonabant 0.1 mg/kg once daily; group 4). The control group (group 1) received vehicle alone twice daily. After 3 weeks of treatment (day 22), the doses were increased as follows: 4-OH 100 mg/kg twice daily (group 2), Rimonabant 1 mg/kg once daily (group 3), and the combination (4-OH 100 mg/kg twice daily+Rimonabant 1 mg/kg once daily; group 4). The animals were treated for 1 week with these higher doses. Body weight of the mice was recorded every day for all groups from Day 6 to Day 28.

Assay [4] in a line: Weight gain and epididymal fat of DIO-C57Bl/6 mice, 4-hydroxyisoleucine and Exendin-4 alone or in combination (Example 5). Type of assay: in vivo, C57BI/6 mice. The conditions noted are these: s.c., 21 days. How it is done: (§1) Glycemic response was monitored by an Oral Glucose Tolerance Test (OGTT) performed on days 0, 7, 14, and 21 of treatment.
(§2) A total of 56 animals were used in the study. The animals were distributed into 7 groups (5 treated, 1 normal diet control, and 1 high fat diet control group). Each group was composed of 8 animals. […] For the three weeks of treatment, the test agents were dissolved in sterile saline for injection (USP). 4-Hydroxyisoleucine was kept at 4° C. (administration to groups 3, 4, and 7) while a frozen aliquot of Exendin-4 was thawed each dosing day for administration to groups 5, 6, and 7. Control animals received sterile saline, twice daily (groups 1 and 2). […] Animals from groups 5 and 6 received sterile saline as the AM treatment, while the PM treatment consisted of 0.05 and 0.01 mg/kg of Exendin-4, respectively. For Group 7, the AM treatment consisted of 50 mg/kg 4-OH only, while the PM treatment consisted of 0.01 mg/kg of Exendin-4+50 mg/kg of 4-OH. All groups were treated by subcutaneous injection.

Assay [5] is described as follows: Oral Glucose Tolerance Test (OGTT) in DIO mice, 4-hydroxyisoleucine and Exendin-4 alone or in combination (Example 5). The conditions noted are these: single agent, 4-OH 50 mg/kg or Exendin-4 0.01 mg/kg, after 7, 14 and 21 days of treatment. Type of assay: in vivo, C57BI/6 mice. How it is done:
as §1, §2
On days 0, 7, 14, and 21, animals fasted for approximately 5 hours were challenged with an Oral Glucose Tolerance Test (OGTT) at 5 hours post-AM test agent administration. Whole blood glucose levels were monitored using a hand-held glucometer prior to OGTT and for up to 2 hours post-glucose challenge.

The conditions of assay [6]: cited from earlier work.
A short description of assay [7]: Body weight of DIO mice, 4-hydroxyisoleucine and metformin alone and in combination (Example 6). It counts as in vivo, C57BU6 mice. The conditions noted are these: DIO mice, 21 days. How it is done: C57BU6 mice were received at 7-8 weeks of age and fed a high fat diet (60% of calories from fat) for 8 weeks. Fasted glycemia was checked and animals with readings between 200 and 220 mg/dL were included in the study. The animals were randomized based on their body weights and glycemia values into control and treatment groups (n=8). […] The control group received vehicle (water) alone. The animals were treated for 21 days. Body weight of the mice was measured on the first day of treatment and on days 3, 7, 10, 14, 17, and 21. All data are expressed as mean±SEM.

Counter-ions that a name gives are not always drawn.

For the compound `O=C(O)[C@@H]1C[C@H](O)CN1` [compound 75, cis-4-hydroxyproline], the “body weight gain induced by the high fat diet” value (“body weight gain induced” for short) in assay [1] is reported as “reduced body weight gain induced by the high fat diet”.
Turning to `N[C@H](C(=O)O)[C@@H]1CCCC[C@H]1O` [Compound 13e, (S)-2-amino-2-((1S,2R)-2-hydroxycyclohexyl)acetic acid], the “body weight gain compared to vehicle treated mice” value in assay [2] is recorded as “reduction in body weight gain”. Moreover, the “dose dependence of the effect on body weight gain” value in assay [2] (DIO mice) is given as “dose-dependent”. Also, the “epididymal fat pad weight” value in assay [2] (DIO mice, grams per 10 grams of body weight) is “reduction of epididymal fat pad weight”.
In the case of `CC(=O)N[C@@H]1C(=O)O[C@@H](C)[C@@H]1C` [compound 104], in assay [1], the “body weight gain induced” value is “reduced body weight gain induced by the high fat diet”.
On to `CC1(O)CC(C(=O)O)NCC1O` (centres unmarked) [compound 65a, 4-methyl-4,5-dihydroxypipecolic acid], for which, in assay [1], the “efficacy on body weight gain relative to compound #14a” value is recorded as “greater efficacy than the SRS isomer of 4-OH” and the “body weight gain induced” value is “reduced body weight gain induced by the high fat diet”.
Consider `Cc1c(C(=O)NN2CCCCC2)nn(-c2ccc(Cl)cc2Cl)c1-c1ccc(Cl)cc1` [Rimonabant, 5-(4-Chlorophenyl)-1-(2,4-dichlorophenyl)-4-methyl-N-(piperidin-1-yl)-1H-pyrazole-3-carboxamide, reference compound], for which the “body weight gain after 21 days (low dosage treatment)” value in assay [3] (4-OH 50 mg/kg twice daily, Rimonabant 0.1 mg/kg once daily, alone or in combination) is listed as “slight reduction of body weight gain”. The “body weight after dose increase (day 22 to 28)” value in assay [3] (4-OH 100 mg/kg twice daily, Rimonabant 1 mg/kg once daily, alone or in combination (combination compared to each compound separately)) is on record as “immediately reduced the body weight”.
Consider “Exendin-4: glucagon-like peptide 1 (GLP-1) receptor agonist”, for which, in assay [4] (4-OH 50 mg/kg twice daily, Exendin-4 0.01 mg/kg (PM), alone or in combination), the body weight gain entry was “decrease in body weight gain”. Also, the “weight of epididymal fat” value in assay [4] (4-OH 100 mg/kg, Exendin-4 0.01 mg/kg, combination 4-OH 50 mg/kg + Exendin-4 0.01 mg/kg) is given as “not effective”; in assay [4] (Exendin-4 0.05 mg/kg) it was “effective”. For the same compound, in assay [5], the “glycemic levels following OGTT challenge” value is listed as “effective”.
Turning to `COC(=O)[C@@H]1C[C@H](O)CN1` [compound 76, cis-4-hydroxyproline methyl ester HCl salt], the “body weight gain induced” value in assay [1] was “reduced body weight gain induced by the high fat diet”.
For the compound `CN(C)C(=N)N=C(N)N` [metformin], the blood glucose levels entry in assay [6] (by increasing insulin sensitivity (Stumvoll et al. 1995)) is “lowers blood glucose levels”. For the same compound, the body weight entry in assay [6] (most studies conducted in patients with type 2 diabetes (Hundal et al. 2003)) is “reduce body weight”. Moreover, the weight result in assay [6] (obese individuals without diabetes (Glueck et al. 2001)) is recorded as “induced weight loss”. Moreover, in assay [7] (100 mg/kg twice daily oral, only 4-OH significant (p<0.01 4-OH, p=0.27 metformin)), the “body weight as compared to vehicle-treated mice” value is listed as “reduction of their body weight”. The “body weight compared to control DIO mice, given alone” value in assay [7] (4-OH 50 mg/kg or metformin 25 mg/kg twice daily oral) was “no significant effect on body weight”.
On to `CC(C)(C)C(O)CC(N)C(=O)O` (centres unmarked) [compound 62, 2-amino-4-hydroxy-5,5-dimethyl-hexanoic acid], for which, in assay [1], the “efficacy on body weight gain relative to compound #14a” value is given as “greater efficacy than the SRS isomer of 4-OH” and the “body weight gain induced” value is “reduced body weight gain induced by the high fat diet”.
For `COC(=O)[C@H]1C[C@@H](O)CN1` [compound 202], in assay [1], the “body weight gain induced” value is recorded as “reduced body weight gain induced by the high fat diet”.
Take `C[C@H]([C@@H](C)O)[C@@H](N)C(=O)O` [compound 14aa, (2R,3S,4R)-4-Hydroxyisoleucine]: the “body weight gain induced” value in assay [1] is reported as “reduced body weight gain induced by the high fat diet”.

Values taken from patent publication US20060223884A1, “Compounds and compositions for use in the prevention and treatment of obesity and related syndromes” (priority 2005, published 2006).
